Measurements as given in ChEMBL document CHEMBL5385935, “Structural Characterization and Rat Aortic Vascular Reactivity of Bradykinin-Potentiating Peptides (BPPs) from the Snake Venom of Bothrops moojeni from Delta do Parnaíba Region, Brazil” (2024).
Non-standard residues stand in square brackets, D forms with d. Residues, ends and D or L forms follow the SMILES beside them. pGlu = O=C1CC[C@@H](C(=O)O)N1

Experiments:
Thoracic aorta [1] = test: Vasorelaxant activity in Wistar rat endothelium-functional thoracic aorta assessed as reduction in phenylephrine-induced isometric contraction; type: tissue-based
Thoracic aorta [2] = test: Vasorelaxant activity in Wistar rat endothelium-functional thoracic aorta assessed as reduction in phenylephrine-induced isometric contraction by measuring maximal efficacy relative to control

Structure (SMILES)	Activity (Thoracic aorta [1])	Emax (Thoracic aorta [2]) [%]
CC[C@H](C)[C@H](NC(=O)[C@H](CCC(=O)O)NC(=O)[C@@H]1CCCN1C(=O)CNC(=O)[C@@H]1CCCN1C(=O)[C@H](CCCNC(=N)N)NC(=O)[C@@H]1CCCN1C(=O)[C@H](Cc1c[nH]c2ccccc12)NC(=O)CNC(=O)CNC(=O)[C@@H]1CCC(=O)N1)C(=O)N1CCC[C@H]1C(=O)N1CCC[C@H]1C(=O)O ([pGlu]GGWPRPGPEIPP-OH)	Dose-Dependent Effect	18.3
CC(C)[C@H](NC(=O)[C@H](CCCCN)NC(=O)[C@@H]1CCCN1C(=O)CNC(=O)[C@@H]1CCCN1C(=O)[C@H](Cc1c[nH]c2ccccc12)NC(=O)[C@H](CCCCN)NC(=O)[C@@H]1CCC(=O)N1)C(=O)N1CCC[C@H]1C(=O)N1CCC[C@H]1C(=O)O ([pGlu]KWPGPKVPP-OH)	Dose-Dependent Effect	37.5
CC[C@H](C)[C@H](NC(=O)[C@H](CCC(=O)O)NC(=O)[C@@H]1CCCN1C(=O)CNC(=O)[C@@H]1CCCN1C(=O)[C@H](CCCNC(=N)N)NC(=O)[C@@H]1CCCN1C(=O)[C@H](Cc1c[nH]c2ccccc12)NC(=O)[C@H](CCCCN)NC(=O)[C@@H]1CCC(=O)N1)C(=O)N1CCC[C@H]1C(=O)N1CCC[C@H]1C(=O)O ([pGlu]KWPRPGPEIPP-OH)	Dose-Dependent Effect	32.8
